# Measured values from patent US10653737B1, “Synergistic nutritional compositions for pain management” (Celagenex Research (India) Pvt. Ltd., priority 2019, dated 2020).
# Tests used:
# eNOS gene = eNOS gene expression by semi-quantitative RT-PCR in H9C2 cells; type: cell-based, rat; conditions: for Regulation in Terms of Folds, eNOS (normalized to β-Actin): control = 1.00
# Protocol: The test substances were evaluated for its gene expression activity in H9C2 (rat cardiomyocytes), the concentration of test substances (G2, G3 and G4,) is 500 μg/ml were taken for gene expression studies. […] [Hunter C. Champion, et al., PNAS, 2005; 102:5:1661-1666.]
# eNOS were estimated for the test substance by gene expression method, where the level of expression of eNOS expression on […] Cardiomyocytes (H9C2) was determined with respect to untreated H9C2 cells.
# The H9C2 cells treated with test samples were subjected to cell lysis by treating with Tri-extract reagent. Chloroform was added, to isolate the total RNA from the sample and subjected for centrifugation. Out of the three distinct layers observed, upper layer was collected in fresh tube and equal volume of isopropanol was added and incubated at […] for 10 mins. After the incubation followed by centrifugation, appropriate volume of ethanol was added to resuspend the pellet. After incubation and centrifugation, the pellet was air dried and appropriate volume of TAE buffer was added. The isolated total RNA was further used for cDNA synthesis. cDNA was synthesized by priming with oligo-dT primers followed by reverse transcriptase enzyme treatment according to manufacturer's protocol (Thermoscientific). The cDNA thus synthesized was taken up for PCR for the amplification of eNOS and GAPDH (internal control).
# The mRNA expression levels of eNOS were determined using semi-quantitative reverse transcriptase-polymerase chain reaction (RT-PCR). 50p of the reaction mixture was subjected to PCR for amplification of eNOS. cDNAs using specifically designed primers procured from Eurofins, India and as an internal control GAPDH/3-Actin (House-keeping genes) was co-amplified with each reaction.
# eNOS: 95° C. for 5 min followed by 35 cycles of denaturation at 95° C. for 30 seconds, annealing Temp for 30 seconds and extension at 72° C. for 45 seconds. This was followed by final extension at 72° C. for 10 min.
# [1] = tested on: Swiss albino mice (tail immersion model); assay: Tail immersion model, analgesic potential in experimental mice; type: in vivo; conditions: for Tail immersion latency reaction time: water 55° C., cut off 15 second, Mean ± SEM, n=6; for Percentage maximum possible effect: [(Post drug latency-Pre drug latency)/(15-Pre drug latency)]×100
# Protocol: Animal Study—Evaluation of analgesic potential of the test substances against tail immersion model in experimental mice.
# Male Swiss albino mice weighing between 30-35 g were used. Mice were placed into individual cylindrical mice holders leaving the tail hanging out freely. The animals were allowed to get acclimatized to mice holders for 30 min before testing. The lower 5 cm portion of the tail was marked. This part of the tail was immersed in a cup of freshly filled water at 55° C. The reaction time was recorded using a stop-watch. After each determination the tail was carefully dried. The reaction time was determined before and periodically 0 min, 30 min, 60 min, 90 min, 120 min, 180 min and 240 min after the oral administration of test substance. The cut off time of immersion was 15 second. The percentage maximum possible effect (% MPE) was calculated using the following formula: [(Post drug latency-Pre drug latency)/(15-Pre drug latency)]×100.
# The values were expressed in Mean±SEM. The significance of in vivo data was analyzed by One way anova followed by Dunnet test. P<0.05 was considered as statistically significant.
structure (smiles),measurement,setting,value
"CCCCCCCCCCCCCCCC(=O)NCCO [Composition P3A, palmitoylethanolamide]",eNOS expression over expressed as compared to the control,"eNOS gene; at tested doses (500 μg/ml), increase over control",0.25 folds
same,"Regulation in Terms of Folds, eNOS (normalized to β-Actin)",eNOS gene; test substance 500 μg/ml,1.25 fold
same,Tail immersion latency reaction time,"[1]; 0 Min, oral",2.50 s
same,Tail immersion latency reaction time,[1]; 30 Min after oral administration,5.17 s
same,Percentage maximum possible effect,[1]; 30 Min,21.33%
same,Tail immersion latency reaction time,[1]; 60 Min after oral administration,5.83 s
same,Percentage maximum possible effect,[1]; 60 Min,26.67%
same,Tail immersion latency reaction time,[1]; 90 Min after oral administration,6.50 s
same,Percentage maximum possible effect,[1]; 90 Min,32.00%
same,Tail immersion latency reaction time,[1]; 120 Min after oral administration,7.50 s
same,Percentage maximum possible effect,[1]; 120 Min,40.00%
same,Tail immersion latency reaction time,[1]; 180 Min after oral administration,8.33 s
same,Percentage maximum possible effect,[1]; 180 Min,46.67%
same,Tail immersion latency reaction time,[1]; 240 Min after oral administration,7.50 s
same,Percentage maximum possible effect,[1]; 240 Min,40.00%
same,Percentage maximum possible effect compared with Pain control group (in words),[1]; different intervals of time,significant increased
same,Tail immersion latency reaction time compared with Pain control group (in words),"[1]; different time intervals, One way anova, Dunnet test, P<0.05",significant increased
"CC(C)C[C@H](CN)CC(=O)O [Pregabalin (LYRICA ®) 75 mg, Pregabalin, reference compound]","Regulation in Terms of Folds, eNOS (normalized to β-Actin)",eNOS gene; 125 μg/ml,1.58 fold
same,eNOS gene expression up-regulated over control,"eNOS gene; standard product (125 μg/ml), increase over control",0.58 fold
same,Percentage maximum possible effect compared with Pain control group (in words),"[1]; mouse, in vivo",significant increased
same,Tail immersion latency reaction time compared with Pain control group (in words),"[1]; mouse, in vivo",significant increased
